Assay results: patent US20070122802A1, “Methods of diagnosing and treating diabetes and insulin resistance” (priority 2002, published 2007)

Tests used:
Format in all cases: in vivo, human
Ceramidase = test: Gene expression profiling (Affymetrix chips) of muscle from diabetics before/after troglitazone: ceramidase transcripts; settings: Ceramidase mRNA, Clamp sample
Description: (§1) The molecular mechanism by which thiazolidinediones (TZDs) cause an increase in peripheral insulin sensitivity was studied. Genes in muscle or fat whose expression is altered by TZDs may lie on a pathway leading from TZD treatment to increased insulin sensitivity. Modulators of such genes can elicit the same effect as TZD treatment. Moreover, such modulators can lack some of the side effects of TZD. The majority of glucose disposal occurs in muscle. For this reason, gene expression profiling in human muscle from diabetics treated with troglitazone was used to identify genes important for TZD action and therefore treatment of diabetes and insulin resistance. […]
(§2) In the second study, samples were obtained from lean, obese, and diabetic individuals before and after a hyperinsulinemic euglycemic clamp. […] The gene expression profile for each individual was determined by hybridization of cRNA to custom synthesized Affymetrix chips.
(§3) Gene expression profile differences were calculated as follows. […] The raw data was analyzed by a statistical test to remove ‘outliers’. The mean ‘average difference score’ was then calculated from the average difference scores for all individuals in a particular treatment group. Genes were determined to be changed in three different comparisons by calculating the Students t test statistic between two conditions and selecting those with t less than or equal to 0.05. […]

Endothelin A receptor = test: Gene expression profiling (Affymetrix chips) of muscle from diabetics before/after troglitazone: Endothelin A receptor transcripts; settings: Endothelin A receptor mRNA, Clamp sample
Description: as §1, §2, §3

PRK1 = test: Gene expression profiling (Affymetrix chips) of muscle from diabetics before/after troglitazone: PRK1 transcripts; settings: PRK1 mRNA, Basal sample
Description: as §1, §2, §3

HIOMT = test: Gene expression profiling (Affymetrix chips) of muscle from diabetics before/after troglitazone: HIOMT transcripts; settings: HIOMT mRNA, Basal sample
Description: as §1, §2, §3

[1] = 3 months of Troglitazone treatment

With `Cc1c(C)c2c(c(C)c1O)CCC(C)(COc1ccc(CC3SC(=O)NC3=O)cc1)O2` (centres unmarked) [Troglitazone, troglitazone] the “Fold Change (diabetic post tro/diabetic pre tro)” value (Ceramidase; [1]) was 0.68, the “Diabetic Post-Trog Mean Exp” value (Ceramidase; diabetic patients after 3 months of Troglitazone treatment (pre-Trog mean 630)) was 427 and the “Fold Change (diabetic post tro/diabetic pre tro)” value (Endothelin A receptor; [1]) was 0.52. The “Diabetic Post-Trog Mean Expr” value (Endothelin A receptor; diabetic patients after 3 months of Troglitazone treatment (pre-Trog mean 194)) was 102, the “Fold Change (diabetic post tro/diabetic pre tro)” value (PRK1; [1]) was 0.54 and the “Diabetic Post-Trog Mean Expr” value (PRK1; diabetic patients after 3 months of Troglitazone treatment (pre-Trog mean 1634)) was 874. For the same compound, the “Fold Change (diabetic post tro/diabetic pre tro)” value (HIOMT; [1]) was 1.51 and the “Diabetic Post-Trog Mean Expr” value (HIOMT; diabetic patients after 3 months of Troglitazone treatment (pre-Trog mean 518)) was 781.
